Values of other authors as cited in US9615750B2, “Methods and compositions for carrier agents and clearing agents used in optoacoustic imaging systems” (SENO MEDICAL INSTRUMENTS, INC., priority 2012, dated 2017).

Conditions: in words, solvents as named

Compound | Solubility
CN1CCCN(C)C1=O [Cyclic Urea] | Soluble in water
Chondroitin Sulfate | Water Soluble
Heparin [reference compound] | Water Soluble
Keratan Sulfate | Water Soluble
Polyoxyethylene (20) sorbitan [TWEEN ® 20] | Insoluble in Mineral Oil.

Same assay, conditions: water

Compound | Solubility in water
OCc1ccccc1 [Benzyl alcohol] | soluble 4 g/100 ml
NC(N)=O [Urea] | > 100 g/100 ml)
